Experiments:
[1] = Daily administration for eight weeks, rats (chronic toxicity); type: in vivo; conditions: 400 mg/kg per os once a day
Procedure: (§1) The effects of daily administrations of the proposed anticonvulsant, carried out over prolonged periods of time, were studied on rabbits and rats.
A colloidal solution of the proposed antispasmodic was administered per os in doses of 400 mg/kg to six rats. The drug was introduced through a metal probe once a day for eight weeks.
(§2) Every day the animals' weight and body temperature were measured, and their general state was assessed. Once a week, a general blood analysis was made, the urine was analyzed for protein, blood and biliary pigments. Upon the end of the experiment, the animals were killed (the rabbits were destroyed by air embolism; the rats were decapitated). The liver, heart, kidneys, spleen, lungs and different parts of the small intestine and stomach of the freshly killed animals were taken for pathomorphological investigation.

[2] = Nicotine-induced convulsions; type: in vivo, mice
Procedure: (§4) The anticonvulsant action of the proposed preparation was tested on mice weighing 19 to 25 g and rats weighing 120 to 150 g by conducting maximum electroshock, corazol, strychnine, camphor, nicotine and arecoline tests.

[3] = Duration of Nembutal-induced sleep; type: in vivo; conditions: P = 0.05; Nembutal 40 mg/kg; proposed preparation 100 mg/kg, zarontin 150 mg/kg, milontin 100 mg/kg
Description: Nembutal was used as a trunk narcotic, and urethane as a cortical narcotic.

[4] = Teratogenic and embryotoxic tests (A. M. Chernukh's method); type: in vivo, mongrel white female rats; conditions: 400 mg/kg per os, rats
Procedure: Teratogenic and embryotoxic tests of the proposed preparation were carried out by using A. M. Chernukh's method on 35 mongrel white female rats weighing 150 to 200 g. The preparation was introduced per os in a dose of 400 mg/kg.
On the twentieth day of pregnancy, all the animals were decapitated.

[5] = animal or person
Procedure: The general effect of the proposed preparation was tested on white mice, rats and rabbits.

[6] = test system: threonine locus of Bacillus coli; test: Mutagenicity, threonine locus of Bacillus coli; type: cell-based; conditions: 0.2-mole concentration, 24 hours
Procedure: (§3) The preparation was further studied with regard to the threonine locus of Bacillus coli at a 0.2-mole concentration; the object was subjected to treatment during 24 hours; the survival rate of the cells was between 42 and 91 percent.

[7] = Mutagenicity, threonine locus of Bacillus coli; type: cell-based; conditions: bacillus coli, 0.2-mole concentration
Procedure: as §3

[8] = test system: actinomyces; test: Mutagenicity, Air-Shibalsky technique, actinomyces; type: cell-based
[9] = Duration of activity, maximum electroshock test; type: in vivo, white mice
Procedure: Corazol convulsions and maximum electroshock tests were carried out to determine the duration of the preparation's activity. Two series of experiments were made on white mice weighing 20 to 25 g. In the first series, the preparation was introduced intraperitoneally, whereas in the second series it was introduced into the stomach through a metal probe.
The anticonvulsive action of effective doses of the proposed preparation (200 mg/kg were introduced intraperitoneally, and 400 mg/kg were introduced per os) was tested every 30 minutes on separate groups of mice, each including 100 animals. The tests were continued until complete termination of the anticonvulsive effect.

[10] = General effect on behaviour of rabbits; type: in vivo; conditions: 500 to 600 mg/kg
[11] = Electroencephalographic study of threshold and afteraction discharges, curarized animals; type: in vivo, cats and rabbits; conditions: 150 to 200 mg/kg
Procedure: The central action of the preparation was studied electroencephalographically. The acute experiments were conducted on curarized cats and rabbits and were aimed at investigating the effects of the preparation upon the threshold magnitude and the duration of afteraction discharges of the dorsal hippocamp, […] nuclei of the thalamus and the motor zone of the cortex.

[12] = test system: Bacillus coli; type: cell-based
[13] = Camphor convulsions test
Procedure: as §4

[14] = Arecoline tremor test; set-up: species or system mice and rats; conditions: in vivo
[15] = Other pharmacological properties (vegetative nervous system, blood pressure, breathing, neuromuscular conduction); type: in vivo; conditions: intraperitoneally or per os
[16] = Clinical study in epilepsy patients; type: in vivo, human (patients)
Procedure: The therapeutic effectiveness of the preparation was evaluated while treating different forms of epilepsy.
The patient's age was between 4 and 56 years with the period of sickness ranging from 2 to 18 years. The different forms of the disease fell into the following categories according to clinical and encephalographic data: polymorphous fits with a deep temporal or frontotemporal focus of epileptic activity; psychomotor fits of pseudo absentia epileptica; generalized tonico-clonic convulsive fits; true absentia epileptica with myoclonic atonic fits and cerebrovascular diseases of the central nervous system, resulting in temporal epileptic fits and polymorphous fits.
The duration of the course of treatment varied from 3 months to 3 years.
The preparation of the present invention was administered per os 3 to 6 times a day; each time a patient was given a tablet of 0.25 g so that the daily dose of the preparation was 0.75 to 1.5 g. […] In a group of 40 patients, examination of other electroencephalographic convulsive manifestations was accompanied by studying focal paroxysmal phenomena in the temporal lobes.

[17] = Corazol convulsion test
Procedure: as §4

[18] = Maximum electroshock test
Procedure: as §4

[19] = Daily administration for eight weeks, rabbits (chronic toxicity); type: in vivo; conditions: 200 mg/kg intraperitoneally once a day
Procedure: as §1
A 2-percent colloidal solution of the proposed preparation was introduced intraperitoneally in doses of 200 mg/kg to five rabbits. This was done once a day for eight weeks. The same amounts of a colloidal solution of a carboxymethyl cellulose were administered intraperitoneally to three control rabbits.
as §2

For CC(C)Oc1ccc(C2CC(=O)NC2=O)cc1 (stereo not drawn) [proposed preparation, α-/para-isopropoxyphenyl/succinimide], the “organ changes, macroscopic and microscopic histochemical investigation” value [1] was “no changes were observed”, the “weight, body temperature, general state, blood and urine composition” value [1] was “no changes were registered in the weight, body temperature and general state of the animals” and the “effect on intensity of nicotine-induced convulsions” value ([2]; 200 mg/kg, mice) was “markedly reduced the intensity of convulsions”. The “effect on nicotine-induced convulsions and tremor” value ([2]; 300 mg/kg) was “effectively prevents convulsions and tremor”, the ED50 ([2]; Mus musculus) was 190 mg/kg and the “Average Duration of Nembutal-Induced Sleep” value [3] was 99 ± 67.6 min. For the same compound, the development of pregnancy [4] was “the pregnancy developed normally”, the “abnormalities in embryos' growth, internal organs and skeletons” value ([4]; twentieth day of pregnancy) was “did not reveal any abnormalities in their growth” and the minimal effective dose ([5]; Mus musculus, ip, read-out: least dose to produce a noticeable effect on the animals' behavior) was 200 mg/kg. For the same compound, the “effect on general state of the animals per os versus intraperitoneal” value ([5]; per os, animals (mice, rats, rabbits)) was “not as marked as in the case of intraperitoneal administration”, the “dose inducing lying position and sleep” value ([5]; white mice, intraperitoneal) was “more than 1,000 milligrams per kilogram of weight” and the genetic action [6] was “extremely weak genetic action”. The revertants induced [6] was “no more than 17 revertants”, the fold induction at 24 h, 200000 µM ([7]; read-out: revertants relative to control (spontaneous mutation)) was 1.8 and the viability at 24 h, 200000 µM ([7]; read-out: survival rate of the cells) was 42 to 91%. The mutagenous effect [8] was “no mutagenous effect”, the “time for which effect is maintained at its peak” value ([9]; maximum electroshock) was “seven” and the “duration of effect, oral versus intraperitoneal” value ([9]; maximum electroshock test) was “lasts longer in the case of oral administration”. For the same compound, the “effect on behaviour of rabbits” value [10] was “no conspicuous changes in the behaviour”, the “afteraction discharges of the thalamic nuclei” value [11] was “prevented afteraction discharges of the thalamic nuclei” and the “convulsion threshold of the hippocamp” value [11] was “slightly raised the convulsion threshold of the hippocamp”. For the same compound, the “period of discharges in the cortex” value [11] was “considerably reduces the period of discharges in the cortex”, the “spread of convulsive activity to other brain structures” value [11] was “prevents the spread of the convulsive activity to other brain structures” and the “stimulation threshold of the motor zone of the cortex” value [11] was “does not raise the stimulation threshold of the motor zone of the cortex”. For the same compound, the mutagenous effect [12] was “no mutagenous effect”, the ED50 ([13]; Mus musculus, read-out: ED50 (camphor)) was 90 mg/kg and the “protection index I=TD50/ED50, Camphor” value ([13]; camphor) was 8. The “protection index PI (mean lethal dose / mean effective dose), Camphor” value ([13]; camphor) was 23.9, the “effect on arecoline tremor” value [14] was “does not hinder the development of arecoline tremor” and the “blood pressure, breathing and neuromuscular conduction” value [15] was “no changes are observed in the blood pressure, breathing and neuromuscular conduction”. The “effect on the vegetative nervous system” value [15] was “no effect upon the vegetative nervous system”, the “antistrychnine effect, ranking of the three drugs” value (in words) was “the most pronounced” and the “ED50 (strychnine)” value (strychnine) was 110 mg/kg. The “protection index I=TD50/ED50, Strychnine” value (strychnine) was 6.55, the “protection index PI (mean lethal dose / mean effective dose), Strychnine” value (strychnine) was 19.55 and the “insomnia and disturbed sleep” value ([16]; administered shortly before bedtime) was “almost all the patients complained of insomnia and disturbed sleep”. For the same compound, the “itching of the skin, weakness and dizziness” value ([16]; after 3 or 4 days of treatment) was “very few cases”, the “time to discontinuation or lower frequency of seizures” value ([16]; after beginning of treatment, dose of 0.25 g) was 7 to 8 days and the “therapeutic effect in convulsive forms of epilepsy” value ([16]; cases of diffusive electroencephalographic pathology) was “week therapeutic effect”. The “effect in secondary generalized seizures” value ([16]; clinically and electroencephalographically established focal changes) was “ineffective”, the “depressing action upon the central nervous system” value ([16]; compared with other antiepileptic drugs) was “not as intense as that of other antiepileptic drugs” and the “patients in whom fits discontinued” value ([16]; group of 40 patients, after 10 to 14 days, per os 0.75 to 1.5 g daily) was 18 patients. The “anticonvulsive effect versus milontin and celontin in psychomotor and convulsive fits” value ([16]; human, in vivo) was “somewhat more effective”, the “effect on minor epileptic fits associated with anterior trunkal localization of the epileptic focus” value ([16]; human, in vivo) was “the most effective in stopping minor epileptic fits” and the “increased frequency of fits” value ([16]; human, in vivo) was “never resulted in an increased frequency of fits”. The nausea ([16]; human, in vivo) was “Some patients complained of nausea”, the “potentiating effect upon convulsive paroxysms” value ([16]; human, in vivo) was “absence of a potentiating effect upon convulsive paroxysms” and the “weakness or dizziness in the day time” value ([16]; human, in vivo) was “does not cause weakness or dizziness in the day time”. The sleep ([16]; last dose 3 or 4 hours before bedtime) was “normal sleep was soon restored”, the “allergic manifestations or somatic abnormalities” value ([16]; patients) was “no allergic manifestations or somatic abnormalities were observed” and the “effect on ambivalence of reactions, ability for mental work and night sleep” value ([16]; patients) was “improves the ambivalence of reactions and the ability for mental work; night sleep becomes deeper and longer”. The “effect on mood, affectivity, anxieties, stresses” value ([16]; patients) was “improves the general mood of patients, reduces affectivity, eliminates anxieties and relieves stresses”, the “effect upon aggressive, quarrelsome and importune epileptics” value ([16]; patients) was “soothing effect” and the “laboratory analyses of blood and urine” value ([16]; patients) was “no pathological changes”. For the same compound, the “pathologic changes in the blood system” value ([16]; patients) was “no pathologic changes in the blood system”, the “therapeutic effect in polymorphous paroxysms and fits of the temporal type” value ([16]; per os 0.75 to 1.5 g daily) was “the most effective in cases of polymorphous paroxysms and fits of the temporal type” and the “memory of actual events” value ([16]; psychologic examination) was “improves the memory of actual events”. For the same compound, the “reduction of frequency of fits” value ([16]; remaining 22 of 40 patients, per os 0.75 to 1.5 g daily) was “reduced from 3 to 4 a week to 2 to 3 a month”, the sedative effect ([16]; single doses of 0.5 g) was “weak and short-lived sedative effect” and the toxic neurological complications ([16]; uninterrupted courses up to eight months) was “does not result in any toxic neurological complications”. The ED50 ([17]; Mus musculus, read-out: ED50 (corazol)) was 86 mg/kg, the “protection index I=TD50/ED50, Corazol” value ([17]; corazol) was 8.38 and the “protection index PI (mean lethal dose / mean effective dose), Corazol” value ([17]; corazol) was 25. For the same compound, the ED50 ([18]; Mus musculus, read-out: ED50 (Electroshock)) was 77 mg/kg, the “protection index I=TD50/ED50, Electroshock” value ([18]; electroshock) was 9.35 and the “protection index PI (mean lethal dose / mean effective dose), Electroshock” value ([18]; electroshock) was 28. The “anticonvulsant activity in maximum electroshock test” value ([18]; in words) was “anticonvulsant activity was only exhibited by the proposed preparation and milontin”, the “organ changes, macroscopic and microscopic histochemical investigation” value [19] was “no changes were observed” and the “weight, body temperature, general state, blood and urine composition” value [19] was “no changes were registered in the weight, body temperature and general state of the animals”.

From patent publication US4188398A, “Method for treating epilepsy” (priority 1978, dated 1980)
